Columns and labels:
PI3K p110g = target: T1, PI3K p110g (Homo sapiens, UniProt P48736); assay: PI3K p110g kinase assay; type: biochemical
T1 construct: purchased Millipore
Method: (§1) In the assays described here, p110α-p85 complex and p110γ were acquired from Millipore. Assays were performed with Lα-phosphatidylinositol (Avanti) as described in Knight et al. Nat Protoc. 2007; 2 (10):2459-66. Inhibitor series were prepared 10% DMSO as 5× stocks for the assay. Assays of HsVps34 were performed as described in Knight et al, except that the final assay buffer composition used was changed to 20 mM HEPES 7.5, 100 mM NaCl, 3 mM MgCl, 1 mg/mL PI and 44 nM hvps34 was used in the assay. […] COS-7 cells were cultured in 10 cm dishes and transfected at 70% confluence with 10 μg of plasmid DNA (HA-tagged bovine PI4KIIIβ, HA-tagged human PI4KIIIα) using Lipofectamine 2000 and 5 ml Opti-MEM following the manufacturer's instructions. After 5 hours the transfection medium was replaced with 10 ml complete DMEM. 36 hrs post transfection, cells were washed once with 5 ml PBS (pH 7.4) and lysed in 1 ml of lysis buffer (1) on ice. Lysates were collected by scraping and after 15 min they were centrifuged at 13,000 rpm for 10 min. To the lysates was added 200 μl of protein G Sepharose 4 fast flow beads that were prewashed with PBS and lysis buffer and 2 μg of anti-HA antibody. The tubes were then incubated overnight at 4 degrees C. in a tube rotator. The Sepharose beads in the lysate were washed twice with 150 mM NaCl in RIPA buffer, twice with RIPA buffer and once with kinase buffer (50 mM Tris/HCl, pH 7.5, 20 mM MgCl2, 1 mM EGTA, 1 mM PtdIns, 0.4% Triton X-100, 0.5 mg/mL BSA) and finally the beads were resuspended in 200 μL kinase buffer. Kinase reactions were run in a mixture of 45 μL of PI buffer (1 mM PI in kinase buffer), 10 μL of immunoprecipitated beads, 2 µL of inhibitors (dissolved and diluted in DMSO) or DMSO and 5 μL of [γ-^32P]-ATP (1 mM and 2 μCi/tube). The immunoprecipitates in PI buffer were pre-incubated with the drugs for 20 min prior the initiation of kinase reaction by adding ATP and the reactions were carried out for 30 min in 15 ml polypropolyne tubes. Reactions were terminated by addition of 3 ml of CHCl3:CH3OH:HCl (200:100:0.75) followed by 0.6 ml of 0.6N HCl to induce phase separation. The mixtures were vortexed, centrifuged at 2000 rpm for 2 min and the upper phase was discarded. To the lower phase was added 1.5 ml of CHCl3:CH3OH:0.6N HCl (3:48:47) and the mixture vortexed and centrifuged at 2000 rpm for 2 min. The lower phase was then transferred to counting vials and evaporated. Samples were counted in a scintillation beta counter after adding 5 ml of Instafluor (Perkin-Elmer).
(§2) PI-kinase assay: Compounds are tested in C.1.1. PI kinase assays as described by Shokat et al., “A membrane capture assay for lipid kinase activity.” Nat. Protoc. 2007; 2(10):2459-66.

PI4KIIIB = target: T2, PI4KIIIB (Bos taurus, UniProt O02810); assay: PI4KIIIB kinase assay; type: biochemical, bovine
T2 construct: made in house; host or cells: COS-7 cells, transient transfection, anti-HA immunoprecipitate on protein G Sepharose beads
T2 sequence (O02810 whole entry): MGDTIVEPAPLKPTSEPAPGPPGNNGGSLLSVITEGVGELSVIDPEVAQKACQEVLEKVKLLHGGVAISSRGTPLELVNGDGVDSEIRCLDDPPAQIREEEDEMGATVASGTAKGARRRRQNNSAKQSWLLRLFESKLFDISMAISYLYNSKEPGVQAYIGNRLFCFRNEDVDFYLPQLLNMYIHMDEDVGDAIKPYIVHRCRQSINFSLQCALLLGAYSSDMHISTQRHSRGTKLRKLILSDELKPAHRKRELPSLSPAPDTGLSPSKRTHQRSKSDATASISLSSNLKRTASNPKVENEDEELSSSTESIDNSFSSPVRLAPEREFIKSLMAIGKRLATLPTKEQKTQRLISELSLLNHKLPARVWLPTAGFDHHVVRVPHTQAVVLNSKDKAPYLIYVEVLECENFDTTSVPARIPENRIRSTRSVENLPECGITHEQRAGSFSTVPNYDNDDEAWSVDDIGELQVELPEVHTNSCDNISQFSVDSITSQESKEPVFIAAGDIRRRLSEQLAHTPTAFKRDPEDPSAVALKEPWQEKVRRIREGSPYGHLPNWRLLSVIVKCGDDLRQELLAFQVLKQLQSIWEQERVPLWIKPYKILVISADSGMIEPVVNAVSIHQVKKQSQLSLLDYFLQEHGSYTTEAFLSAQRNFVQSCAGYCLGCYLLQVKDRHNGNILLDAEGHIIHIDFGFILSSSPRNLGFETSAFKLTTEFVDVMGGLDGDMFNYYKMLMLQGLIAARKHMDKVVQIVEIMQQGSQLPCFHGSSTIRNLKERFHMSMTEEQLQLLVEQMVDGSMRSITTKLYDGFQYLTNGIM
Method: as §1, with “2007; 2 (10):2459-66.” left out, “for” for “for the assay. Assays of HsVps34 were performed as described in Knight et al, except that the final assay buffer composition used was changed to 20 mM HEPES 7.5, 100 mM NaCl, 3 mM MgCl, 1 mg/mL PI and 44 nM hvps34 was used in”, “Lysates were collected by scraping and after 15 min they were centrifuged at 13,000 rpm for 10 min.” left out, “The Sepharose beads in the lysate were washed twice with 150 mM NaCl in RIPA buffer, twice with RIPA buffer and once with kinase buffer (50 mM Tris/HCl, pH 7.5, 20 mM MgCl2, 1 mM EGTA, 1 mM PtdIns, 0.4% Triton X-100, 0.5 mg/mL BSA) and finally the beads were resuspended in 200 μL kinase buffer.” left out
PI-kinase assay: Compounds are tested in C.1.1. PI kinase assays as described by Shokat et al., “A membrane capture assay for lipid kinase activity.” Nat. Protoc.

PI3KC2G = target: T3, PI3KC2G (Homo sapiens, UniProt O75747); assay: PI3KC2G kinase assay; type: biochemical
T3 sequence (O75747 1-1486): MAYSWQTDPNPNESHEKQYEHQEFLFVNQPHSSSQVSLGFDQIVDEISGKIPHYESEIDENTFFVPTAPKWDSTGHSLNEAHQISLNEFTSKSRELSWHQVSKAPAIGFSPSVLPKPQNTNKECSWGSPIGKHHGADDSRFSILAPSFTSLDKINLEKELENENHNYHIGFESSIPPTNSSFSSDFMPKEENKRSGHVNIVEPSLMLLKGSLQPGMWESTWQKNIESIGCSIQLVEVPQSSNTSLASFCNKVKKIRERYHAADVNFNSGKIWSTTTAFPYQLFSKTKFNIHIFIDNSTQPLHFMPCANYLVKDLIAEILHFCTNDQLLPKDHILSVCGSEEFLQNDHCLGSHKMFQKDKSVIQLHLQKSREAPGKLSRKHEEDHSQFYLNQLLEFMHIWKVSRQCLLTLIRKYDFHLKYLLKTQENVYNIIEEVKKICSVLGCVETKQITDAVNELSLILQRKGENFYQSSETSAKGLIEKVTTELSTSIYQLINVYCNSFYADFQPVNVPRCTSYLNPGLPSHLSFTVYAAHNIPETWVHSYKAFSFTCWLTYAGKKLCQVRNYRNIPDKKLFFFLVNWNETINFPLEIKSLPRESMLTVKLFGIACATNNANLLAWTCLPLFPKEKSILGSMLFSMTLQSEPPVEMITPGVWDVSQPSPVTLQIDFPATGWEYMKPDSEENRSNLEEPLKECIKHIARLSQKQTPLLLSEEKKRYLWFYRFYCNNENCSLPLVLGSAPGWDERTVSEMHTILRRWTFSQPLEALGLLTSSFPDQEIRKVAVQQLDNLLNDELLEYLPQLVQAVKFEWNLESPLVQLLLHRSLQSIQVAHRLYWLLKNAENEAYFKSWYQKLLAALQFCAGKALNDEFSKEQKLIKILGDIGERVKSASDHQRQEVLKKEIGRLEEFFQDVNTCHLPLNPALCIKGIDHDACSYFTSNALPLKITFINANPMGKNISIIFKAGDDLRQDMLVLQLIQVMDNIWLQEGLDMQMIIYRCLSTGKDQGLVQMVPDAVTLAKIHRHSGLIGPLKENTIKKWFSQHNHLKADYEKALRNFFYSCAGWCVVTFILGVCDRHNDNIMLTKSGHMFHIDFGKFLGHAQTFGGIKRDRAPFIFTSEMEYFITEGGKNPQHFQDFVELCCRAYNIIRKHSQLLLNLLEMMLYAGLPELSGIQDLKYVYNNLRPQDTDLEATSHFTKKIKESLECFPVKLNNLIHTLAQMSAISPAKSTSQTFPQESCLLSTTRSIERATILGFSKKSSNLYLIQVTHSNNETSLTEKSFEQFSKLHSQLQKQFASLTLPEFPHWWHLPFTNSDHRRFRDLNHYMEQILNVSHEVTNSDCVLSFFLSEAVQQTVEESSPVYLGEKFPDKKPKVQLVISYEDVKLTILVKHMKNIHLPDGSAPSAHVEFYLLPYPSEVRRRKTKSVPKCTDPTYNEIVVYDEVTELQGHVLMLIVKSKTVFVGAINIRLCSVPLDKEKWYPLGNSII

PI4KIIIA = target: T4, PI4KIIIA (Homo sapiens, UniProt P42356); assay: PI4KIIIA kinase assay; type: biochemical
T4 construct: made in house; host or cells: COS-7 cells, transient transfection, anti-HA immunoprecipitate on protein G Sepharose beads
Method: as §1, with “Reactions were terminated by addition of 3 ml of CHCl3:CH3OH:HCl (200:100:0.75) followed by 0.6 ml of 0.6N HCl to induce phase separation. The mixtures were vortexed, centrifuged at 2000 rpm for 2 min and the upper phase was discarded. To the lower phase was added 1.5 ml of CHCl3:CH3OH:0.6N HCl (3:48:47) and the mixture vortexed and centrifuged at 2000 rpm for 2 min. The lower phase was then transferred to counting vials and evaporated.” left out, “(Perkin-Elmer). […]” for “(Perkin-Elmer).”

Ebola = assay: microbe, parasite or virus in culture; type: cell-based; conditions: Zaire ebolavirus, read-out: Ebola EC50
HRV = assay: Rhinovirus antiviral assay; type: cell-based; conditions: Human rhinovirus sp.
HCV genotype 2a = assay: microbe, parasite or virus in culture; type: cell-based; conditions: Hepatitis C virus, Huh7.5, read-out: HCV2a EC50
HCV replicon = assay: Resistance selection in HCV replicon system; type: cell-based
Norovirus = Norovirus antiviral assay; type: cell-based
EV71 = EV71 antiviral assay; type: cell-based; conditions: Enterovirus A
PI3KC2B = PI3KC2B (Homo sapiens, UniProt O00750); assay: PI3KC2B kinase assay; type: biochemical
Sequence of PI3KC2B (O00750 whole entry): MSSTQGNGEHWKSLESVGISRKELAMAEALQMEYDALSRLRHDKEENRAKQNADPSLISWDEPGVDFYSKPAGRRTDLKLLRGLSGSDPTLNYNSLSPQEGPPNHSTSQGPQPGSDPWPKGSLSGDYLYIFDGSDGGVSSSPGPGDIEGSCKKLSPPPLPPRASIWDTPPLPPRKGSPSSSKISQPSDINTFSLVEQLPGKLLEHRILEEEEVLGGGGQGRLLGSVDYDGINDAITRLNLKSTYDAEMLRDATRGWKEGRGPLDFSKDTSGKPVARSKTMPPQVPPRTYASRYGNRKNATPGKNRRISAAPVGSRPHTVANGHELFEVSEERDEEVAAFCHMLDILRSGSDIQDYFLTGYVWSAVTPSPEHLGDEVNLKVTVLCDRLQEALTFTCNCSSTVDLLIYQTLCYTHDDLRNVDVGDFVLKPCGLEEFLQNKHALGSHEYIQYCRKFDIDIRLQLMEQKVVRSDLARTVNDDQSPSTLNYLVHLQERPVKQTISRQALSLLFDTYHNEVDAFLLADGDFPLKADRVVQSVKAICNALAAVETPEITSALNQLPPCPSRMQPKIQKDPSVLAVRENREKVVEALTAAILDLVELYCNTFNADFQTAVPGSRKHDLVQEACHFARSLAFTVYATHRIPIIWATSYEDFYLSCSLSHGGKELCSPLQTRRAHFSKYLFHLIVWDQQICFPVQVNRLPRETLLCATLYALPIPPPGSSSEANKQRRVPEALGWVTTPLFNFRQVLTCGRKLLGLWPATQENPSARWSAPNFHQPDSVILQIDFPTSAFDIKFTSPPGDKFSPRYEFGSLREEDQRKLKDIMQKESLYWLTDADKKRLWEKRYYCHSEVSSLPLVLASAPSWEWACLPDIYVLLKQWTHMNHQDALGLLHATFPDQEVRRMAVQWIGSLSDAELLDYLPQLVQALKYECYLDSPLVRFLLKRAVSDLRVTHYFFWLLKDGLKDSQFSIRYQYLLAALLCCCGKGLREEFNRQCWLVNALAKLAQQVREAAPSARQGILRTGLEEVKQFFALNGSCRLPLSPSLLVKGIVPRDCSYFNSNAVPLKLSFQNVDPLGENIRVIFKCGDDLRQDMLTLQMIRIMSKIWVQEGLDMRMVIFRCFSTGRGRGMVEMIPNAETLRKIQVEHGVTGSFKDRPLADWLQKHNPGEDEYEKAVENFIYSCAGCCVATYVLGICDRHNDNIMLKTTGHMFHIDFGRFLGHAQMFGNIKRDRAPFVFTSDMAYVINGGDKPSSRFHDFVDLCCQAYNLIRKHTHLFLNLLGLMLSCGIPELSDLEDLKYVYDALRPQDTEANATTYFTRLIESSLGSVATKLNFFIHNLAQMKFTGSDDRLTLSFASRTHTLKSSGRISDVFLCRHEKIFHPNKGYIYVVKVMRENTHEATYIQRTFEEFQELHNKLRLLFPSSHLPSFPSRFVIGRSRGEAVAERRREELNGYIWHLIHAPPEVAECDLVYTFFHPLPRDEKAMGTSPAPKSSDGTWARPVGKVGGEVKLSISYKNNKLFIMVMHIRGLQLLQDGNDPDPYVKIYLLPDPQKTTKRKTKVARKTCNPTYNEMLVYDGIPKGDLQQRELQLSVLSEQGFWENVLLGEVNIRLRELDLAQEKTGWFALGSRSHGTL
Method: as §2

T1 sequence (P48736 whole entry): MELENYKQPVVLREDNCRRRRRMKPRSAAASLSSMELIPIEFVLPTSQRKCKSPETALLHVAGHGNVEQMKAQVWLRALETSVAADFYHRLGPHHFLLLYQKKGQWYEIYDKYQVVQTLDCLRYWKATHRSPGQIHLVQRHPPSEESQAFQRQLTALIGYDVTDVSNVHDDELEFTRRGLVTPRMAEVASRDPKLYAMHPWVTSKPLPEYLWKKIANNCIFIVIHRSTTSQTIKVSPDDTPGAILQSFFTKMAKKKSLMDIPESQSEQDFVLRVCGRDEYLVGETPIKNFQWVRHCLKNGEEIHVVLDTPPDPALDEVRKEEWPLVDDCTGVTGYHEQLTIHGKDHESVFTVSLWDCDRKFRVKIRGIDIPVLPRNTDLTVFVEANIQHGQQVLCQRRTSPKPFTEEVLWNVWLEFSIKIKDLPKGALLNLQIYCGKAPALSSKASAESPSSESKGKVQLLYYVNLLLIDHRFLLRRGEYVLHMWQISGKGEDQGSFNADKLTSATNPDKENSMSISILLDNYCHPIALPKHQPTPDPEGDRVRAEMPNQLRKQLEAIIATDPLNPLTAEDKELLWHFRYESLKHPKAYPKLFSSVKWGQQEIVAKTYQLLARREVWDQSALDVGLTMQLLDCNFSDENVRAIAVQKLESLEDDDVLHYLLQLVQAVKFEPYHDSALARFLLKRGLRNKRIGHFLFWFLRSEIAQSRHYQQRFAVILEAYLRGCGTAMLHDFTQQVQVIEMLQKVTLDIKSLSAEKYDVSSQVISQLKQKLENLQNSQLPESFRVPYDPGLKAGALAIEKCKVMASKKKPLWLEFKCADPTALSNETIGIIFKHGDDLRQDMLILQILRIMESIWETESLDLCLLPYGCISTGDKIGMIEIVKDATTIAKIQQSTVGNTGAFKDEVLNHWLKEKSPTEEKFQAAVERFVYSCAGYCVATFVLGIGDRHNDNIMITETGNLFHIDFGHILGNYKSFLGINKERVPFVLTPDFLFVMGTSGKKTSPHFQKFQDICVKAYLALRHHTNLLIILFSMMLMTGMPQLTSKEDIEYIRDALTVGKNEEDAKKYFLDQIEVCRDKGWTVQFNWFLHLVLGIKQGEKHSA

SMILES | IC50 (PI3K p110g) | IC50 (PI4KIIIB) | IC50 (PI3KC2G) | IC50 (PI4KIIIA) | EC50 (Ebola) | EC50 (HRV) | EC50 (HCV genotype 2a) | Selection of resistance (HCV replicon) | EC50 (Norovirus) | EC50 (EV71) | IC50 (PI3KC2B)
COc1ccc(-c2sc(NCCC3CCCCC3)nc2C)cc1S(=O)(=O)NC1CCC(O)C1 (centres unmarked) [Compound S-214, 5-[2-(2-cyclohexylethylamino)-4-methyl-thiazol-5-yl]-N-(3-hydroxycyclopentyl)-2-methoxy-benzenesulfonamide] | > 10000 nM | 100 to 1000 nM | > 10000 nM | > 10000 nM |  |  |  |  |  |  | 
COc1ccc(-c2sc(NCC3CCCCC3)nc2C)cc1S(=O)(=O)Nc1cccc(C(C)(C)C)c1 [Compound S-32, N-(3-tert-butylphenyl)-5-[2-(cyclohexylmethylamino)-4-methyl-thiazol-5-yl]-2-methoxy-benzenesulfonamide; 2,2,2-trifluoroacetic acid] |  |  |  |  | 1000 to 10000 nM | < 1 nM | 1000 to 10000 nM |  |  |  | 
COc1ccc(-c2sc(NC(=O)C3CCCC3)nc2C)cc1S(=O)(=O)Nc1ccc(O)cc1 [PT423] |  |  |  |  |  |  |  | resistance was not able to be selected |  |  | 
COc1ccc(-c2sc(NC3CCCCCC3)nc2C)cc1S(=O)(=O)Nc1c(C)cccc1C [Compound S-98, 5-[2-(cycloheptylamino)-4-methyl-thiazol-5-yl]-N-(2,6-dimethylphenyl)-2-methoxy-benzenesulfonamide; 2,2,2-trifluoroacetic acid] | > 10000 nM |  |  |  |  | < 1 nM | 1000 to 10000 nM |  | 1000 to 10000 nM | < 1 nM | 
COc1ccc(-c2sc(NC(=O)CC3CCOCC3)nc2C)cc1S(=O)(=O)Nc1ccc(O)cc1 [Compound S-227, N-[5-[3-[(4-hydroxyphenyl)sulfamoyl]-4-methoxy-phenyl]-4-methyl-thiazol-2-yl]-2-tetrahydropyran-4-yl-acetamide] | > 10000 nM |  |  |  | 100 to 1000 nM | 1 to 100 nM | 1 to 100 nM |  | 100 to 1000 nM | < 1 nM | > 10000 nM

— patent publication US10428060B2, “PI-kinase inhibitors with anti-infective activity” (The Board of Trustees of the Leland Stanford Junior …, priority 2011, dated 2019)
